Consider twelve compounds from patent US8859581B2, “Azaheterocyclic compounds as kinase inhibitors” (Merck Patent GmbH, priority 2005, dated 2014).

Molecules are shown by their SMILES.

T1 sequence (P08069 31-1367): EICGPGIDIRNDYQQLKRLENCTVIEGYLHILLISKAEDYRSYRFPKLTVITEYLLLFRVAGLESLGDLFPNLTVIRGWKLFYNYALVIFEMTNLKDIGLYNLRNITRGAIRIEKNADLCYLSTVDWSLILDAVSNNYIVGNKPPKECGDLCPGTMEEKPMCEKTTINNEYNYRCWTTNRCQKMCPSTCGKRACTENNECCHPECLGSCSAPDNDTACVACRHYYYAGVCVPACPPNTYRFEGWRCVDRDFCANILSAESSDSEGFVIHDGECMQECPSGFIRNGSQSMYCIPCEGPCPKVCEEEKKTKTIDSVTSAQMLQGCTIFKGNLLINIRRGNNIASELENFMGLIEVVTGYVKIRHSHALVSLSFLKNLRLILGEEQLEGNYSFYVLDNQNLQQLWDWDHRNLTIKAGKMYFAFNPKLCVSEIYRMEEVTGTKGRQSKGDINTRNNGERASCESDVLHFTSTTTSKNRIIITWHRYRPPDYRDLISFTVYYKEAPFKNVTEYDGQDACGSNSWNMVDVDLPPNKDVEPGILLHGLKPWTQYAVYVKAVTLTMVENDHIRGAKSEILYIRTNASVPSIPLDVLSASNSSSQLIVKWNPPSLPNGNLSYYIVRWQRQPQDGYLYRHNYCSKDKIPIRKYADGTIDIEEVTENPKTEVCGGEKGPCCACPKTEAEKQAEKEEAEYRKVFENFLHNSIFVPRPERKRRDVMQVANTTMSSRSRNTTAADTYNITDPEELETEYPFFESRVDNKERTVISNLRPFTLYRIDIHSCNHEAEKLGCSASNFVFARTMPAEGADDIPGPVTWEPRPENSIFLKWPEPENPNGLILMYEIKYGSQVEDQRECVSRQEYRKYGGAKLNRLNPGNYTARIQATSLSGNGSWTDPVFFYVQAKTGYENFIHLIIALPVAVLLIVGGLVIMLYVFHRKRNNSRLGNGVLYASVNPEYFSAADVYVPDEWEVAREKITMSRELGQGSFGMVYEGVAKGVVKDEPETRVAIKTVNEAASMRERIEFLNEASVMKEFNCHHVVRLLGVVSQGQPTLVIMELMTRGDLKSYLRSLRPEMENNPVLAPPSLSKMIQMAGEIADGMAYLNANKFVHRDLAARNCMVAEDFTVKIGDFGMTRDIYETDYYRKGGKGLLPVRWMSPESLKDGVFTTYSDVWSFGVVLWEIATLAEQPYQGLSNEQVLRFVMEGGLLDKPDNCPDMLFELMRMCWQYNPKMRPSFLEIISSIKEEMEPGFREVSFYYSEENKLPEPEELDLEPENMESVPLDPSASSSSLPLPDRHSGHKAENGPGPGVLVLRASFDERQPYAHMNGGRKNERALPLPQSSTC

One series has as its target T1, IGF1R (Homo sapiens, UniProt P08069).
T1 construct: endogenous in cells
Kind of series: Inhibition of IGF-1R (IC50): IGF1-stimulated IGF1R autophosphorylation in human tumour cells, Capture-ELISA or LUMINEX. Format: cell-based. The conditions noted are these: human tumour cells expressing IGF1R (for example MCF-7 or Calu-6); 45 min pre-treatment, IGF1 stimulation 5 min; read-out: IC50 (μM), IGF1R. The protocol: Cultivated human tumour cells which express the IGF1 receptor (IGF1R) (for example MCF-7 or Calu-6) are stimulated using human IGF1, the natural ligand of IGF1R. The stimulation induces autophosphorylation of tyrosine residues in the cytoplasmatic IGF1R domain, which triggers signal transduction cascades, which result in apoptosis inhibition and cell proliferation.
The amount of phosphorylated IGF1R is determined by a receptor-specific Capture-ELISA or an analogous LUMINEX assay. The IGF1R from cell lysates is bound to a 96-well ELISA plate or LUMINEX beads (“capturing”) by means of a specific antibody, and the tyrosine phosphorylation is detected using a biotin-labelled anti-phosphotyrosine antibody and a streptavidin peroxidase conjugate by a chemoluminescence method or by means of a fluorescence-labelled anti-phosphotyrosine antibody, In order to determine the activity of kinase inhibitors, cells are pre-treated with increasing concentrations of these compounds for 45 min and subsequently stimulated using IGF1 for 5 min. As internal control, the biological activity of the ligand IGF1 is checked and a concentration series of an IGF1R reference inhibitor measured.
For orientation: In an ELISA, binding on a coated surface is turned into a signal by an enzyme label.
The IC50 is the midpoint of a concentration-inhibition curve. As for `COc1cc(-c2cc3c(Nc4cccc(F)c4)ccnc3[nH]2)cc(OC)c1OC` [Compound 4], the IC50 is 0.86 µM.

For `COc1cc(-c2cc3c(Nc4cccnc4)ccnc3[nH]2)cc(OC)c1OC` [Compound 2], the IC50 stood at 0.76 µM.

Turning to `COc1ccc(Nc2ccnc3[nH]c(-c4cc(OC)c(OC)c(OC)c4)cc23)cc1N1CCN(C)CC1` [Compound 3], the IC50 turned out to be 0.99 µM.

Consider `COc1cc(-c2cc3c(Nc4cnccn4)ccnc3[nH]2)cc(OC)c1OC` [Compound 7], for which the IC50 is 0.76 µM.

With `C#CCCCCNc1ccnc2[nH]c(-c3ccc(OC)cc3)cc12` [Compound 20], the IC50 came out at 9.9 µM.

`COc1cc(-c2cc3c(NCCc4cccnc4)ccnc3[nH]2)cc(OC)c1OC` [Compound 9]: the IC50 stood at 1.2 µM.

`NCC1CC(n2cc(-c3cccc(OCc4ccccc4)c3)c3c(N)nccc32)C1` (centres unmarked) [Compound 73]: the IC50 stood at 0.91 µM.

Turning to `COc1cc(-c2cc3c(Nc4cccc(C#N)c4)ccnc3[nH]2)cc(OC)c1OC` [Compound 11], the IC50 is 1.6 µM.

Take `COc1cc(-c2cc3c(NCCc4ccccn4)ccnc3[nH]2)cc(OC)c1OC` [Compound 10]: the IC50 is 1.4 µM.

For `NCCCCCn1cc(-c2cccc(OCc3ccccc3)c2)c2c(N)nccc21` [Compound 69], the IC50 is 5.7 µM.

Regarding `COc1cc(-c2cc3c(NCc4cccnc4)ccnc3[nH]2)cc(OC)c1OC` [Compound 8], the IC50 was found to be 0.93 µM.

Turning to `COc1ccc(CNc2ccnc3[nH]c(-c4ccc(OC)cc4)cc23)cc1` [Compound 16], the IC50 is 11 µM.

Tested on in the next series: not given
Assay: not given
Settings: not given
In general, melting point refers to the temperature of the solid-liquid transition. Turning to `COc1cc(-c2cc3c(Nc4cccc(F)c4)ccnc3[nH]2)cc(OC)c1OC` [Compound 4], the melting point fell in the range of 80 to 81 °C.

For `NCCCCCn1cc(-c2cccc(OCc3ccccc3)c2)c2c(N)nccc21` [Compound 69], the melting point fell in the range of 75 to 78 °C.
